A word on the Ki: it is a measure of affinity in units of concentration, obtained from inhibition or displacement. A high value points to a looser hold on the target.

The text below walks through data of BindingDB's records for doi:10.1021/jm060595u (University of Bristol, 2006).

This assay can be described thus: Displacement of [3H]Cl-DPDPE from delta receptor in guinea pig brain homogenate. (In a radioligand displacement assay an active substance lowers the binding of a labelled ligand.)
The compound `COc1ccc2c3c1O[C@H]1C(=O)CC[C@@]4(NC(=O)CCc5ccc(Cl)cc5)[C@@H](C2)N(CC2CC2)CC[C@]314` [N-cyclopropylmethyl-14beta-[3'-(4'-chlorophenyl)propanamido]-7,8-dihydronorcodeinone] came in with a Ki of 5.1 nM.

As for `O=C(CCc1ccc(Cl)cc1)N[C@@]12CCC(=O)[C@@H]3Oc4c(O)ccc5c4[C@@]31CCN(CC1CC1)[C@@H]2C5` [N-cyclopropylmethyl-14beta-[3'-(4'-chlorophenyl)propanamido]-7,8-dihydronormorphinone], the affinity, expressed as Ki, was 0.6 nM.

`COc1ccc2c3c1O[C@H]1C(=O)CC[C@@]4(NCCCc5ccc(Cl)cc5)[C@@H](C2)N(CC2CC2)CC[C@]314` [N-cyclopropylmethyl-14beta-[3'-(4'-chlorophenyl)propylamino]-7,8-dihydronorcodeinone] returned a Ki of 31 nM.

In the case of `O=C1CC[C@@]2(NCCCc3ccc(Cl)cc3)[C@H]3Cc4ccc(O)c5c4[C@@]2(CCN3CC2CC2)[C@H]1O5` [N-cyclopropylmethyl-14beta-[3'-(4'-chlorophenyl)propylamino]-7,8-dihydronormorphinone], the affinity, expressed as Ki, was 1.1 nM.
